Laboratory results as given in publication PMC12622164, “Endothelial CYB5R1 is a Coenzyme Q reductase that suppresses ferroptosis and atherosclerosis” (Research Square, 2025).

Target: T1, recombinant CYB5R1 (Δ1–29) (Homo sapiens, UniProt Q9UHQ9)
T1 construct: soluble form lacking first 29 residues (membrane anchor); His6-SUMO (Smt3) fusion cleaved by Ulp1; E. coli SoluBL21
T1 sequence (Q9UHQ9 30-305): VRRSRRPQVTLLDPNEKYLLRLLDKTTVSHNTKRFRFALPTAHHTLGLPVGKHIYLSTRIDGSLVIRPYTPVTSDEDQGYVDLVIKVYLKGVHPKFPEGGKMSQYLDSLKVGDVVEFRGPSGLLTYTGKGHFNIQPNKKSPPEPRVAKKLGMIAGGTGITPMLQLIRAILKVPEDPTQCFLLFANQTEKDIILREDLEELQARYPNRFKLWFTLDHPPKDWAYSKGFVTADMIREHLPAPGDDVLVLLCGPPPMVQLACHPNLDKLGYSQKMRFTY
Experiment: NADH consumption at […] nm
Type: biochemical
Details: 200 uM CoQ0; 500 uM NADH; 100 mM Tris-HCl pH 7.4; no CYB5B

## COC1=C(OC)C(=O)C(C)=CC1=O [CoQ0, 2,3-dimethoxy-5-methyl-1,4-benzoquinone]
  NADH consumption at 340 nm: recombinant CYB5R1 readily reduced CoQ0, a water-soluble derivative of CoQ10
